Test results as given in patent US11534377B2, “Hair growth agent” (KOBAYASHI PHARMACEUTICAL CO., LTD., priority 2016, dated 2022).

Legend:
[1] = system: crab-eating macaque (Macaca fascicularis); experiment: New hair growth test in monkey (Example 4); type: in vivo; conditions: 1 wt % in 50% ethanol, once/day 150 μl, 8 weeks, sparse hair region of head; number of hair before application = 100%
Description: A crab-eating macaque (Macaca fascicularis) is a monkey (class: Mammalia, order: Primates, family: Cercopithecidae, genus: Macaca) that has many similarities to humans, such as the morphology of the temporomandibular joint, and is frequently employed as a laboratory animal for morphological studies and medication studies due to its easy breeding and rearing. The crab-eating macaque is known for the replacement of the body hair in a six-month cycle in a year. Among aged female monkeys that had babies repeatedly and aged male monkeys of low social status, individuals with observed symptoms of hair thinning or sparse hair emerge with low frequency. […] In this Example, to an aged crab-eating macaque (19 years of age, male) having sparse body hair of the head, a test solution A in which D-chiro-inositol (from Wako Pure Chemical Industries Ltd.) was dissolved in 50% ethanol at a concentration of 1 wt % and a test solution B in which myo-inositol was dissolved in 50% ethanol at a concentration of 1 wt % were applied every day to about 4 cm^2-sparse hair regions (2 cm×2 cm) in both left and right sides across the median line of the head of the macaque. The application (once/day, 150 μl) was performed over 8 weeks, and 50% ethanol was applied as a negative control. At the end of 8 weeks, hair shafts in the applied regions were cut with hair clippers while leaving 2 to 3 mm from pores toward the outside of the body, and the total number of hair protruded from the pores in the applied regions was counted. A new hair growth rate was calculated as an increase rate in the number of hair at the end of 8 weeks, relative to the number of hair protruded from pores in the same regions before the application at the start of the test as 100%.

hair papilla cells = experiment: Hair papilla cell proliferation test by two-dimensional culture (Example 5); type: cell-based, C57BL/6N mouse; conditions: final concentration 0.1 wt %, cultured for 3 days; FIG. 18
Description: Hair papilla cells transmit new hair growth signals to hair matrix cells via signaling substances to activate hair matrix cells, thereby controlling processes of new hair growth and hair elongation. Accordingly, the hair shaft growth promoting activity and the like of test substances can be evaluated from a proliferation rate of hair papilla cells. In this Example, the skin of the whisker region was taken from a C57BL/6N mouse and hair papillae were harvested from isolated whisker follicles under a stereo microscope. Six hair papillae were fixed to the bottom surface of a 60 mm-plastic petri dish (from Sumitomo Bakelite Co., Ltd.), and the primary culture was performed at 37° C. in the presence of 5% CO2 by using a hair papilla cell culture medium in which 2% FCS (fetal calf serum), 0.6% ITT (insulin-transferrin-triiodothyronine mixture), 1% BPE (bovine pituitary extract), and 0.6% Cyp (cyproterone solution) were added to a PCGM base medium. Afterwards, the medium was replaced every 2 to 3 days and subculturing was repeated about every two weeks. In this experiment, hair papilla cells at passage 3 or less were used. […] The number of cells after culturing for 3 days was counted by using a hemocytometer, and proliferation rates in test solution A and the test solution B were calculated relative to 100% for a proliferation rate in the negative control as 100%.

[2] = system: hair papilla cell spheroids; experiment: Hair papilla cell proliferation test by three-dimensional culture (Example 6); type: cell-based, C57BL/6N mouse; conditions: final concentrations 0.05 wt %, 0.1 wt %, and 1 wt %, cultured for 3 days; FIG. 19
Protocol: In this Example, hair papilla cells prepared in a similar manner to Example 5 were seeded in a 96-well U-bottom microplate for cell culture (from Sumitomo Bakelite Co., Ltd.) at 6,000 cells/well and centrifuged with a plate centrifuge at room temperature and at a rotating speed of 1,000 rpm for 1 minute to yield three-dimensional hair papilla cell spheroids. The spheroids were cultured for 3 days by using each of test solutions A1 to A3 that were hair papilla cell culture media to which D-chiro-inositol dissolved in PBS was added at a final concentration of 0.05 wt %, 0.1 wt %, or 1 wt %; test solutions B1 to B3 that were hair papilla cell culture media to which myo-inositol dissolved in PBS was added at a final concentration of 0.05 wt %, 0.1 wt %, or 1 wt %; and a negative control that was a hair papilla cell culture medium to which PBS alone was added. The spheroids after culturing for 3 days were imaged by using a VHX2000 digital microscope (Keyence Corporation), and the area of the spheroids was calculated by using a digital microscope analysis tool. By calculating a spheroid area increase rate in the test solutions A1 to A3 and B1 to B3, relative to an area increase rate in the negative control as 100%, the proliferation of hair papilla cells in conditions further close to in vivo condition was quantified.

[3] = system: transplanted mice (hair follicles of haired mice transplanted into the back of nude mice); experiment: Hair shaft growth in nude mice transplanted with hair follicles of haired mice (Example 1); type: in vivo; conditions: for Hair shaft growth rate: topical 4 times per day
Protocol: Hair follicles (surgically prepared) of haired mice were transplanted into the back of nude mice (from Sankyo Labo Service Corporation, Inc.) to produce transplanted mice manipulated such that each hair can be distinguished and a plurality of hair cycles can be observed. First, a 50% ethanol aqueous solution (12.5 μl, not containing the agent) was applied to the transplanted mice 4 times per day during new hair growth in the first hair cycle to obtain reference data of a hair cycle. After the hair had shed following the end of the first hair cycle, a 50% ethanol aqueous solution (12.5 μl) containing a predetermined amount of the agent was applied to the mice 4 times per day to obtain data on effects of the agent. After the hair had shed following the end of the second hair cycle, a 50% ethanol aqueous solution (12.5 μl) containing the agent in the same amount as that in the second hair cycle was applied to the mice in a similar manner to the second hair cycle to obtain reproducibility data on effects of the agent. As the agent, D-chiro-inositol (from Wako Pure Chemical Industries Ltd.) and its stereoisomers as chiro-inositol, L-chiro-inositol (from Tokyo Chemical Industry Co., Ltd.), myo-inositol (from Wako Pure Chemical Industries Ltd.), allo-inositol (cis-1,2,3,4-trans-5,6-cyclohexaneheaxol) (from Tokyo Chemical Industry Co., Ltd.), epi-inositol (cis-1,2,3,4,5-trans-6-cyclohexanehexaol) (from Tokyo Chemical Industry Co., Ltd.), muco-inositol (cis-1,2,4,5-trans-3,6-cyclohexanehexaol) (from Tokyo Chemical Industry Co., Ltd.), and scyllo-inositol (cis-1,3,5-trans-2,4,6-cyclohexanehexaol) (from Tokyo Chemical Industry Co., Ltd.) were used. For each agent solution, the lengths of hair shafts were measured every 2 to 3 days, an average length of hair shafts that changed day by day was plotted as one dot at each time point in a graph, and a similar plotting was repeated for 3 to 4 mice. The results were shown in Tables 1 to 14 and FIGS. 1 to 14.

obese mice = conditions: insulin sensitivity increasing substances, PTL 2; cited from earlier work
[4] = 1 wt % in 50% ethanol, second hair cycle
[5] = 1 wt % in 50% ethanol, third hair cycle (reproducibility)
[6] = 1 wt %, third hair cycle (reproducibility)
[7] = 5 wt % in 50% ethanol, second hair cycle
[8] = 5 wt % in 50% ethanol, third hair cycle (reproducibility)
[9] = 5 wt %, third hair cycle (reproducibility)

SMILES	New hair growth rate [1] [%]	Hair papilla cell proliferation rate vs negative control (hair papilla cells)	Hair papilla cell spheroid area vs negative control [2]	Hair shaft growth rate [3, 4] [mm/day]	Hair shaft growth rate [3, 5] [mm/day]	Hair shaft maximum length ([3]; 1 wt %, second hair cycle) [mm]	Hair shaft maximum length [3, 6] [mm]	Hair shaft growth rate [3, 7] [mm/day]	Hair shaft growth rate [3, 8] [mm/day]	Hair growth activity (hair shaft growth rate and maximum length vs reference data) ([3]; 5 wt % or 1 wt %)	Hair shaft maximum length ([3]; 5 wt %, second hair cycle) [mm]	Hair shaft maximum length [3, 9] [mm]	Hair growth activity (hair shaft growth rate and maximum length vs reference data) ([3]; 5 wt %)	Effect on hair loss (obese mice)
O[C@H]1[C@H](O)[C@@H](O)[C@H](O)[C@@H](O)[C@H]1O [myo-inositol, cis-1,2,3,5-trans-4,6-cyclohexanehexaol]	107.1	no significant difference was observed	no significant differences were observed	0.45 ± 0.03	0.44 ± 0.08	4.9 ± 0.5	5.0 ± 0.5	0.37 ± 0.05	0.39 ± 0.06	hair growth activity was not confirmed	4.6 ± 0.5	4.7 ± 0.5	–	–
OC1C(O)C(O)C(O)C(O)C1O (stereo not drawn) [allo-inositol, cis-1,2,3,4-trans-5,6-cyclohexaneheaxol]	–	–	–	0.37 ± 0.03	0.40 ± 0.04	5.0 ± 0.5	5.2 ± 0.5	0.43 ± 0.02	0.40 ± 0.03	hair growth activity was not confirmed	5.5 ± 0.3	5.5 ± 0.8	–	–
OC1C(O)C(O)C(O)C(O)C1O (stereo not drawn) [epi-inositol, cis-1,2,3,4,5-trans-6-cyclohexanehexaol]	–	–	–	0.43 ± 0.06	0.45 ± 0.09	5.2 ± 0.3	5.3 ± 0.4	0.33 ± 0.09	0.32 ± 0.09	hair growth activity was not confirmed	4.7 ± 0.6	4.5 ± 0.6	–	–
OC1C(O)C(O)C(O)C(O)C1O [L-chiro-inositol]	–	–	–	–	–	–	–	0.33 ± 0.08	0.33 ± 0.13	–	4.9 ± 0.7	4.8 ± 0.8	hair growth activity was not confirmed	–
CN(C)C(=N)N=C(N)N [metformin]	–	–	–	–	–	–	–	–	–	–	–	–	–	prevented hair loss or slowed progress of hair loss
OC1C(O)C(O)C(O)C(O)C1O (stereo not drawn) [muco-inositol, cis-1,2,4,5-trans-3,6-cyclohexanehexaol]	–	–	–	–	–	–	–	0.35 ± 0.03	0.36 ± 0.10	–	4.9 ± 0.3	5.1 ± 0.3	hair growth activity was not confirmed	–
O[C@H]1[C@H](O)[C@@H](O)[C@H](O)[C@@H](O)[C@@H]1O [scyllo-inositol, cis-1,3,5-trans-2,4,6-cyclohexanehexaol]	–	–	–	–	–	–	–	0.35 ± 0.09	0.35 ± 0.09	–	4.4 ± 0.3	4.4 ± 0.5	hair growth activity was not confirmed	–
